Where two headings read alike, the source gives them in different places. Peptide text beside a SMILES is read from it.
How the values were obtained:
[1] = target: T1, rat μ opioid receptors (rMOR) (Rattus norvegicus, UniProt P33535); assay: biochemical; format: biochemical; conditions: Table 32; for EC50: read-out: GTP rMOR EC50; for Emax: read-out: GTP rMOR EMax
T1 construct: expressed in transfected cells; host or cells: HN9.10 neuroblastoma cell line, pCDNA3, neomycin-selected clones

μ opioid receptors (GPI) = assay: Guinea pig isolated ileum (GPI) assay, opioid agonist;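 note: inhibition of electrically evoked contractions (0.1 Hz, 0.4 msec, supramaximal voltage) in organ baths at 37 °C, contraction height 3 min after each cumulative dose versus the 1 min before dosing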
Description: Guinea Pig Isolated Ileum Assay. […] These tissues were tied to gold chains with suture silk and mounted between platinum wire electrodes in 20 mL organ baths at a tension of 1 g and bathed in oxygenated (95:5 O2:CO2) Kreb's bicarbonate buffer at 37° C. and stimulated electrically (0.1 Hz, 0.4 msec duration) at supramaximal voltage. Following an equilibration period, compounds were added cumulatively to the bath in volumes of 14-60 μL until maximum inhibition was reached. A baseline PL-017 was constructed to determine tissue integrity and allow calculation of antagonist activity before opioid analog testing began.
For opioid data analysis, percentage inhibition was calculated using the average tissue contraction height for 1 min preceding the addition of the agonist divided by the contraction height 3 min after exposure to the dose of agonist. […] IC50 and Emax estimates were determined by computerized nonlinear least-squares analysis (the pharmacological statistics package FlashCalc: Dr. Michael Ossipov, University of Arizona, Tucson, Ariz.). […] A50 values represent the mean of not less than 4 tissues. A50 and Emax estimates were determined by computerized nonlinear least-squares analysis (FlashCalc).

[2] = target: T2, human δ opioid receptors (hDOR) (Homo sapiens, UniProt P41143); assay: [35S]GTP-γ-S binding assay, hDOR; format: biochemical; conditions: Table 32; for EC50: read-out: GTP hDOR EC50; for Emax: read-out: GTP hDOR EMax
T2 construct: expressed in transfected cells; host or cells: HN9.10 neuroblastoma cell line, pCDNA3, neomycin-selected clones
T2 sequence (P41143 whole entry): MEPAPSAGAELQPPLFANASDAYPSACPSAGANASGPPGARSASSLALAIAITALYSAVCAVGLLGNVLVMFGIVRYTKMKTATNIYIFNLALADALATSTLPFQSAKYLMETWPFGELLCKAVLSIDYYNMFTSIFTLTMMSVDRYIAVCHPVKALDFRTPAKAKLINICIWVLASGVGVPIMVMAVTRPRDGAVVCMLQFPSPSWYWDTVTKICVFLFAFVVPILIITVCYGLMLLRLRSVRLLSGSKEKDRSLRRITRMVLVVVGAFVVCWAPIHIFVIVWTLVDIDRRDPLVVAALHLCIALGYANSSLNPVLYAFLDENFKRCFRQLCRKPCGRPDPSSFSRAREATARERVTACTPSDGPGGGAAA

[3] = target: T2, human δ opioid receptors (hDOR); assay: Radioligand competition binding, [3H]DPDPE, hDOR membranes
[4] = target: T3, Substance P receptors (guinea pig NK1) (Cavia porcellus, UniProt P30547); assay: Guinea pig isolated ileum (GPI) assay with substance P stimulation in presence of 1 μM naloxone
T3 construct: from tissue; host or cells: guinea pig (Hartley) ileum LMMP, 1 μM naloxone present
T3 sequence (P30547 whole entry): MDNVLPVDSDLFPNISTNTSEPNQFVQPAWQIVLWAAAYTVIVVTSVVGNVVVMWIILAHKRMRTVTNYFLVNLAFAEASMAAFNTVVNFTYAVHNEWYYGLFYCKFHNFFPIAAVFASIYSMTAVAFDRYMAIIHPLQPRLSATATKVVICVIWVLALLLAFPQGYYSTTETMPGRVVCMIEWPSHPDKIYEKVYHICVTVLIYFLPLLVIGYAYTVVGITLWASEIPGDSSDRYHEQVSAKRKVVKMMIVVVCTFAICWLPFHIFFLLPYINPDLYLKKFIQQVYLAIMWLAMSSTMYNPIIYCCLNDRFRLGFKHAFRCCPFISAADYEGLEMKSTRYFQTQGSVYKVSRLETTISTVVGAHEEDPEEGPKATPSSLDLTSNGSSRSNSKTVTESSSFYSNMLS
Description: Testing stopped at 1 mM concentrations of the test compound.
Analysis of GPI and MVD assays. For opioid data analysis, percentage inhibition was calculated using the average tissue contraction height for 1 min preceding the addition of the agonist divided by the contraction height 3 min after exposure to the dose of agonist. […] IC50 and Emax estimates were determined by computerized nonlinear least-squares analysis (the pharmacological statistics package FlashCalc: Dr. Michael Ossipov, University of Arizona, Tucson, Ariz.). […] A50 values represent the mean of not less than 4 tissues. A50 and Emax estimates were determined by computerized nonlinear least-squares analysis (FlashCalc).

δ opioid receptors (MVD) = target: T4, δ opioid receptors (MVD) (Mus musculus, UniProt P32300); assay: Mouse isolated vas deferens (MVD) assay, opioid agonist
T4 construct: from tissue; host or cells: mouse (ICR) isolated vas deferens
T4 sequence (P32300 whole entry): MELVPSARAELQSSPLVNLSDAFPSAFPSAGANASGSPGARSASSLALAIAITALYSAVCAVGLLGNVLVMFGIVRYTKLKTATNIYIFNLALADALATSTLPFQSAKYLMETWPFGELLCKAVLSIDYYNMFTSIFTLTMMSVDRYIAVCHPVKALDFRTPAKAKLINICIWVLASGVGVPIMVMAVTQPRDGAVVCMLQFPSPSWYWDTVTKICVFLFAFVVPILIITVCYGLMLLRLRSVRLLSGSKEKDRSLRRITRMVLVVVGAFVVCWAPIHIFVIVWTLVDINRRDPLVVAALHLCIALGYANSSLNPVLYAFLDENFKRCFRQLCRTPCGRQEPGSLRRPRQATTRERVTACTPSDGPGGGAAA

[5] = target: T5, human NK1 receptor (hNK1) (Homo sapiens, UniProt P25103); assay: Radioligand competition binding, [3H]-Substance P, hNK1
T5 construct: expressed in transfected cells
T5 sequence (P25103 whole entry): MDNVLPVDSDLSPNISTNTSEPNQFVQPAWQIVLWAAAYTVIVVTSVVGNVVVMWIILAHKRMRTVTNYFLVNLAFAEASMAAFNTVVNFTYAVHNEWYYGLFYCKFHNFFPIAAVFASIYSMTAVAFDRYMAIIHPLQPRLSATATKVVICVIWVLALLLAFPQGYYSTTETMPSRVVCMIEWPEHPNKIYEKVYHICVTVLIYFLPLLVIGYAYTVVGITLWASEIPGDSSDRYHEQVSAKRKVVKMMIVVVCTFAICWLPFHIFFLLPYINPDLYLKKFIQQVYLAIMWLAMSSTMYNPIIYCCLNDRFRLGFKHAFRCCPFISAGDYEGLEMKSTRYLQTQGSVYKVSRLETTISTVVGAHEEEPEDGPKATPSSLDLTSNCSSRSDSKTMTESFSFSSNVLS

rat NK1 (rNK1) receptor = target: T6, rat NK1 (rNK1) receptor (Rattus norvegicus, UniProt P14600); assay: Radioligand competition binding, [3H]substance P, rNK1/CHO membranes
T6 construct: expressed in transfected cells; host or cells: CHO (rNK-1/CHO cell line from Dr. James Krause)
T6 sequence (P14600 whole entry): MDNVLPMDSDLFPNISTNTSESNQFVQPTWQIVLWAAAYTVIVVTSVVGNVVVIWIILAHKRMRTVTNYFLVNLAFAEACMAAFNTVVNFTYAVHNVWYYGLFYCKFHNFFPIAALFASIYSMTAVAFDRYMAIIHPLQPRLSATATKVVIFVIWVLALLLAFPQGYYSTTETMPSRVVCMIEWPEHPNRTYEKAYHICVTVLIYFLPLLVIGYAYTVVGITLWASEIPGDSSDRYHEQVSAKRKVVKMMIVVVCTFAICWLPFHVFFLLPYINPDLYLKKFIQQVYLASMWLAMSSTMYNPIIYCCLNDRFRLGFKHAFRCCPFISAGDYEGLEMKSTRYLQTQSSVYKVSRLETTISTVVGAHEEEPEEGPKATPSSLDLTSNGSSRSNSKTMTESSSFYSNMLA

[6] = Table 35, read-out: GPI/LMMP μ-agonist IC50
[7] = GPI/LMMP SP antagonist Ke (nM), Table 35

T1 sequence (P33535 whole entry): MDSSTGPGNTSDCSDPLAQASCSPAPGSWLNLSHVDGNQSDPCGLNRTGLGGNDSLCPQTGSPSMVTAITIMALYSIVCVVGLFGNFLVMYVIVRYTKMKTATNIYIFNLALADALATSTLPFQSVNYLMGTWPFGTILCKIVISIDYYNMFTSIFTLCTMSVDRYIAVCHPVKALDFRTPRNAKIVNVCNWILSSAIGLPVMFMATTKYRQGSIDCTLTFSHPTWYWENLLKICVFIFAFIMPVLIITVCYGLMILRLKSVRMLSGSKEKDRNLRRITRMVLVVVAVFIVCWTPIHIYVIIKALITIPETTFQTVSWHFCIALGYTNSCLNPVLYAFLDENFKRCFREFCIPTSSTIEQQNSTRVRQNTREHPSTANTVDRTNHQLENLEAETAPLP

| Structure (SMILES) | EC50 [1] [nM] | Emax [1] [%] | IC50 (μ opioid receptors (GPI); [6]) [nM] | EC50 [2] [nM] | Emax [2] [%] | Ki [3] [nM] | Kb [4, 7] [nM] | IC50 (δ opioid receptors (MVD)) [nM] | Ki [5] [pM] | Ki (rat NK1 (rNK1) receptor; Affinity (Ki, nM) rNK1, Table 32) [nM] | GPI μ-agonist, % at 1 μM (μ opioid receptors (GPI); Table 36, at 1 μM) [% at 1 μM] | Ki (rat NK1 (rNK1) receptor; Ki (nM) rNK1, Table 33) [nM] | GPI SP-antagonist activity @ 1 μM ([4]; Table 36, @ 1 μM) | MVD δ-agonist, % at 1 μM (δ opioid receptors (MVD); Table 36, at 1 μM) [% at 1 μM] | IC50 (μ opioid receptors (GPI); Table 36, read-out: GPI μ-agonist IC50) [nM] | Kb ([4]; GPI SP-antagonist Ke (nM), Table 36) [nM] |
| --- | --- | --- | --- | --- | --- | --- | --- | --- | --- | --- | --- | --- | --- | --- | --- | --- |
| C[C@H](NC(=O)[C@H](Cc1ccccc1)NC(=O)CNC(=O)[C@@H](C)NC(=O)[C@@H](N)Cc1ccc(O)cc1)C(=O)N[C@@H](Cc1c[nH]c2ccccc12)C(=O)OCc1cc(C(F)(F)F)cc(C(F)(F)F)c1 [NP31] (HELM PEPTIDE1{Y.[dA].G.F.A.W.[FC(F)(F)c1cc(CO[*:1])cc(C(F)(F)F)c1]}$$$$V2.0; N-terminus assumed) | 11 | 50 | 401 | 3.3 | 91 | 1.2 | 18.6 | 6.4 |  |  |  |  |  |  |  |  |
| CC[C@H](NC(=O)[C@H](Cc1ccccc1)NC(=O)CNC(=O)[C@@H](C)NC(=O)[C@@H](N)Cc1ccc(O)cc1)C(=O)N[C@@H](Cc1c[nH]c2ccccc12)C(=O)OCc1cc(C(F)(F)F)cc(C(F)(F)F)c1 [NP33] (HELM PEPTIDE1{Y.[dA].G.F.[Abu].W.[FC(F)(F)c1cc(CO[*:1])cc(C(F)(F)F)c1]}$$$$V2.0; N-terminus assumed) | 8.6 | 32 | 600 | 2.9 | 43 | 1.6 | 5.6 | 12.4 |  |  |  |  |  |  |  |  |
| C[C@@H](NC(=O)[C@@H](N)Cc1ccc(O)cc1)C(=O)NCC(=O)N[C@@H](Cc1ccccc1)C(=O)NCCCC(=O)N[C@@H](Cc1c[nH]c2ccccc12)C(=O)OCc1cc(C(F)(F)F)cc(C(F)(F)F)c1 [NP34] (HELM PEPTIDE1{Y.[dA].G.F.[O=C(CCCN[*:1])[*:2]].W.[FC(F)(F)c1cc(CO[*:1])cc(C(F)(F)F)c1]}$$$$V2.0; N-terminus assumed) | 17.4 | 27 | 200 | 16.5 | 40 |  | 0.96 | 67.9 | 1 |  |  |  |  |  |  |  |
| C[C@@H](NC(=O)[C@@H](N)Cc1ccc(O)cc1)C(=O)NCC(=O)N[C@@H](Cc1ccccc1)C(=O)NC(C)(C)C(=O)N[C@@H](Cc1c[nH]c2ccccc12)C(=O)OCc1cc(C(F)(F)F)cc(C(F)(F)F)c1 [NP41] (HELM PEPTIDE1{Y.[dA].G.F.[Aib].W.[FC(F)(F)c1cc(CO[*:1])cc(C(F)(F)F)c1]}$$$$V2.0; N-terminus assumed) | 105 | 36 |  | 37.7 | 65 |  |  | 36.2 | 8 | 3.4 |  |  |  |  |  |  |
| N[C@@H](Cc1ccc(O)cc1)C(=O)NCC(=O)N[C@@H](Cc1c[nH]c2ccccc12)C(=O)OCc1cc(C(F)(F)F)cc(C(F)(F)F)c1 [NP42] |  |  |  |  |  |  |  |  | 3 |  | 2.6 | 0.36 | None @ 1 μM | 7.5 |  |  |
| C[C@@H](NC(=O)[C@@H](N)Cc1ccc(O)cc1)C(=O)NCC(=O)N[C@@H](Cc1ccc(F)cc1)C(=O)OCc1cc(C(F)(F)F)cc(C(F)(F)F)c1 [NP62] |  |  |  |  |  |  |  | 184 | 200 |  |  |  |  |  | 208 | 51.8 |
